US20200368235A1, “IBRUTINIB COMBINATION THERAPY” (Pharmacyclics LLC, priority 2013, published 2020)

B1: siltuximab (antibody, chains of the INN, looked up, V domains shown)
VH: EVQLVESGGKLLKPGGSLKLSCAASGFTFSSFAMSWFRQSPEKRLEWVAEISSGGSYTYYPDTVTGRFTISRDNAKNTLYLEMSSLRSEDTAMYYCARGLWGYYALDYWGQGTSVTVSS
VL: QIVLIQSPAIMSASPGEKVTMTCSASSSVSYMYWYQQKPGSSPRLLIYDTSNLASGVPVRFSGSGSGTSYSLTISRMEAEDAATYYCQQWSGYPYTFGGGTKLEIK

Legend:
Assay type in all cases: cell-based
[1] = test system: 17 Diffuse Large B Cell Lymphoma (DLBCL) cell lines; assay: High throughput screen of ibrutinib combinations, growth inhibition by ATP-lite at 72h; settings: for synergy in combination with JNJ-02 (ibrutinib): synergy score heat map across DLBCL cell lines
Method: (§1) A high throughput screen of 17 Diffuse Large B Cell Lymphoma (DLBCL) cell lines was conducted for their response to Ibrutinib in combination with 99 anti-cancer agents selected from among standard-of-care and emerging therapeutics and targeted agents. The goal of the project was to identify and quantify specific synergies with Ibrutinib to identify pathways that contribute to clinical response. Examples of therapeutics tested included first-line DLBCL therapeutics: RCHOP (Rituximab, Cyclophosphamide, Doxorubicin, Vincristine, Prednisone) or EPOCH (+Etoposide) and Second-line therapeutics: Dexamethasone, Prednisone, Etoposide, Vincristine, Gemcitabine, Carboplatin, Ifosfamide, Bendamustine, Cyclophosphamide, Rituximab, Lenalidomide, and Anthracycline.
(§2) The 17 DLBCL cell lines tested were DB, DOHH-2, HBL-1, HT, NU-DHL-1, OCI-Lyl, OCI-Ly10, OCI-Ly18, OCI-Ly19, OCI-Ly3, OCI-Ly7, Pfeiffer, SU-DHL-5, SU-DHL-6, SU-DHL-8, TMD8 and Toledo. Eight of the cell lines were screened in human MSC-conditioned medium (hMSC-CM) and nine of the cell lines were screened with hMSC-CM+1 ug/ml each of anti-IgM and anti-IgG. The assay was performed in a 384-well format (6×6 HFDR format) with intra-plate replicates (Ibrutinib n=4; enhancers n=2; combination n=1), inter-plate replicates (n=3) and 20 self-crosses. The dose-response matrix screening was designed to detect both types of multi-target interaction, potency shifts or efficacy boosts.
(§3) The cells were seeded 24h before dosing. Cells were dosed with ibrutinib (JNJ-02) and the test compounds at varying concentrations as depicted in FIGS. 18-39G. At T0 (0h after dosing) and T72 (72h after dosing) ATP-lite raw values were obtained. Growth inhibition of the cell culture was measured as follows:
(§4) Measure untreated at time 0 (V0) (the time at which drugs are added), treated (T) and untreated (V) (at assay end point (72h).
(§5) 100% (Total growth inhibition)—treatment viability signal and 0h vehicle viability signal are matched. (T=V0)
(§6) 200% (complete kill)—treatment viability signal is 0. (T=0)
(§7) The growth inhibition measure is sensitive to the cell doubling time (e.g., it measures the fraction of (net) growth inhibition during the assay period). Growth inhibition gives additional valuable information. For example, 0%-100% (growth inhibition) represents % reduction in net increase in the cells with vehicle during drug incubation period, 100% represents no net increase in viability signal at T72 and T0) (i.e., cytostatic) and 100%-200% (killing zone) represents cytotoxic effects.

DOHH-2 cell line = assay: High throughput combination screen, growth inhibition (ATP-lite)
Method: as §1, §2, §3, §4, §5, §6, §7

OCI-Ly18 cell line = assay: as above
Method: as §1, §2, §3, §4, §5, §6, §7

TMD8 cell line = assay: as above
Method: as §1, §2, §3, §4, §5, §6, §7

Molecule	synergy in combination with JNJ-02 (ibrutinib) [1]	also measured
rituximab	Synergy is observed	
CN(C)CC[C@H](CSc1ccccc1)Nc1ccc(S(=O)(=O)NC(=O)c2ccc(N3CCN(Cc4ccccc4-c4ccc(Cl)cc4)CC3)cc2)cc1[N+](=O)[O-] [ABT-737]	strong synergy and good breadth of activity	
CCOC(=O)C1=C(N)Oc2ccc(Br)cc2C1C(C#N)C(=O)OCC (stereo not drawn) [HA14-1]	modest synergy in selected cell lines	
O=C(c1ccc(Nc2nccc(-c3cc4ccccc4s3)n2)cc1)N1CCC(N2CCCC2)CC1 [IKK inhibitor VII]	strong synergy and good breadth of activity	
CC(C)c1c(C(=O)Nc2ccccc2)c(-c2ccccc2)c(-c2ccc(F)cc2)n1CC[C@@H](O)C[C@@H](O)CC(=O)O [Atrovastatin]	synergizes	
Nc1cccc2c1CN(C1CCC(=O)NC1=O)C2=O (stereo not drawn) [Lenalidomide]	synergized	activity as a single agent ([1]; single agent, cell line not given): not active as a single agent; synergy with JNJ-02 (ibrutinib) (DOHH-2 cell line; combination with ibrutinib): does not show synergy; activity as a single agent (DOHH-2 cell line; single agent): active as a single agent; synergy with JNJ-02 (ibrutinib) (OCI-Ly18 cell line; combination with ibrutinib): does not show synergy; activity as a single agent (OCI-Ly18 cell line; single agent): active as a single agent; synergy with JNJ-02 (ibrutinib) (TMD8 cell line; combination with ibrutinib): synergizes; activity as a single agent (TMD8 cell line; single agent): not active as a single agent
C[C@]12C=CC(=O)C=C1CC[C@@H]1[C@@H]2[C@@H](O)C[C@@]2(C)[C@H]1CC[C@]2(O)C(=O)CO [prednisolone]	strong synergy and good breadth of activity	
B1	not	
